Source: patent publication US5792920A, “Plants with altered ability to synthesize starch and process for obtaining them” (Imperial Chemical Industries PLC, priority 1988, dated 1998)
Like-named read-outs stand apart in the source and are kept apart here.

What was measured:
[1] = biological target: T1, ADP-glucose pyrophosphorylase enzyme from rice endosperm (Oryza sativa subsp. japonica, UniProt P15280+Q7G065); settings: 5 mM 3-phosphoglycerate; cited from earlier work
T1 construct: host or cells: rice endosperm
T1 sequence (P15280 1-479 isoform P15280-2): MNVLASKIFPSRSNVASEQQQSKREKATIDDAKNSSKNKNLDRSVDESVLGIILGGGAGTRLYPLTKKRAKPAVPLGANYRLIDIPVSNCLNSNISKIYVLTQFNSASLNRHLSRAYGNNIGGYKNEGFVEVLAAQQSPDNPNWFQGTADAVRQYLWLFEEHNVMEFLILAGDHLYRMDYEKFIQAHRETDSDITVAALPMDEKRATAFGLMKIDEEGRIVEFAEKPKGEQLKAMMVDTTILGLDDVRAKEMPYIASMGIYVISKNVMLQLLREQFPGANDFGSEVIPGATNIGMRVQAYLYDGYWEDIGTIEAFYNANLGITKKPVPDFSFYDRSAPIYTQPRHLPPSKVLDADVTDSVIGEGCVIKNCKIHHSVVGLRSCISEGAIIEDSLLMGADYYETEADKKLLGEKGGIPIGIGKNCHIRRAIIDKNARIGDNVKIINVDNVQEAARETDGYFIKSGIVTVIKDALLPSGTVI
T1 sequence (Q7G065 1-518): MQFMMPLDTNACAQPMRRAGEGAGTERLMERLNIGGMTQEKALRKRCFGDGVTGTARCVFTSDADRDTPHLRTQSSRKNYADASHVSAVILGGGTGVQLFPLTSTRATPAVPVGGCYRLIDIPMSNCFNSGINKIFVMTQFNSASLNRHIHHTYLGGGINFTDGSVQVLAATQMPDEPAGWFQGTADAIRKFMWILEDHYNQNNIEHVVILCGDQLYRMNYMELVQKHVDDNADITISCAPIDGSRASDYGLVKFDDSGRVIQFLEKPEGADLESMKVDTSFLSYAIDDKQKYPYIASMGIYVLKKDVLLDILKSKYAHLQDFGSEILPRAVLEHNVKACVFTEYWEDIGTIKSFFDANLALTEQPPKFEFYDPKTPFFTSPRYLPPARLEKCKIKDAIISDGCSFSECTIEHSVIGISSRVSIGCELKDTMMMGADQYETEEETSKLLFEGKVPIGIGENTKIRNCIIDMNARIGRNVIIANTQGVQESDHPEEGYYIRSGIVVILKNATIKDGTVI

[2] = biological target: T2, wheat leaf ADP-glucose pyrophosphorylase (Triticum aestivum, UniProt P12298); assay: biochemical; settings: read-out: fold activation of enzyme
T2 sequence (P12298 1-301): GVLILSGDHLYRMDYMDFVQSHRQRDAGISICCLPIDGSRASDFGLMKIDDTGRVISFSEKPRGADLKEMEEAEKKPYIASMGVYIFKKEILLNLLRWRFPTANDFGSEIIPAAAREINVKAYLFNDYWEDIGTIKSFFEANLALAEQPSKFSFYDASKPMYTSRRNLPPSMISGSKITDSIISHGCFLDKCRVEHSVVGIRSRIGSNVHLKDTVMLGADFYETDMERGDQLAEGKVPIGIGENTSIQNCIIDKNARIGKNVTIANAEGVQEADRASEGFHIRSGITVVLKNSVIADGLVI
T2 sequence (P30523 2-473 partner): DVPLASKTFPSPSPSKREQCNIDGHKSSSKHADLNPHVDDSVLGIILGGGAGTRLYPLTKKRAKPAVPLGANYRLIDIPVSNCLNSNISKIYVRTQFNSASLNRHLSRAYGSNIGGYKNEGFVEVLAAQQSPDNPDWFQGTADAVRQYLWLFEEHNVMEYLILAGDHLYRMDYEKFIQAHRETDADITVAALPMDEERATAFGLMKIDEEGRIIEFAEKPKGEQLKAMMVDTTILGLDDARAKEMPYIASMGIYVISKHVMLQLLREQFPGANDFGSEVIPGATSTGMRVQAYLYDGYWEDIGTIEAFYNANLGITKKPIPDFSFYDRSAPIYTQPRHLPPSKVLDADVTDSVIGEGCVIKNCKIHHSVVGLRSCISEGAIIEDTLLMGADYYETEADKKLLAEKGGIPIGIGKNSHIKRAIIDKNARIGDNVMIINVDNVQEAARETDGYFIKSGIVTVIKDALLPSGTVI

[3] = biological target: T3, wheat endosperm ADP-glucose pyrophosphorylase (Triticum aestivum, UniProt P12299+P30523)
T3 sequence (P12299 63-522): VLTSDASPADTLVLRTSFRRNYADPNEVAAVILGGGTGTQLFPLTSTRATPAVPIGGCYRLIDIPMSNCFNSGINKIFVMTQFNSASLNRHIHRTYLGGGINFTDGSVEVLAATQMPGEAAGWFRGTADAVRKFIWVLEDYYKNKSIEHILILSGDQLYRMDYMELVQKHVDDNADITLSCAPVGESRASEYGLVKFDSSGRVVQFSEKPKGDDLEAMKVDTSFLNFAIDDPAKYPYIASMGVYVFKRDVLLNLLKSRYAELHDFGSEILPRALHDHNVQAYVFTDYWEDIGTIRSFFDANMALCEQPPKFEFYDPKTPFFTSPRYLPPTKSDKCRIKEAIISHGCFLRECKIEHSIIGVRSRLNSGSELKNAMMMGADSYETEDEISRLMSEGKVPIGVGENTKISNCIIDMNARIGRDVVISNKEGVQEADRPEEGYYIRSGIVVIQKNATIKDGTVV
T3 sequence (P30523 1-473): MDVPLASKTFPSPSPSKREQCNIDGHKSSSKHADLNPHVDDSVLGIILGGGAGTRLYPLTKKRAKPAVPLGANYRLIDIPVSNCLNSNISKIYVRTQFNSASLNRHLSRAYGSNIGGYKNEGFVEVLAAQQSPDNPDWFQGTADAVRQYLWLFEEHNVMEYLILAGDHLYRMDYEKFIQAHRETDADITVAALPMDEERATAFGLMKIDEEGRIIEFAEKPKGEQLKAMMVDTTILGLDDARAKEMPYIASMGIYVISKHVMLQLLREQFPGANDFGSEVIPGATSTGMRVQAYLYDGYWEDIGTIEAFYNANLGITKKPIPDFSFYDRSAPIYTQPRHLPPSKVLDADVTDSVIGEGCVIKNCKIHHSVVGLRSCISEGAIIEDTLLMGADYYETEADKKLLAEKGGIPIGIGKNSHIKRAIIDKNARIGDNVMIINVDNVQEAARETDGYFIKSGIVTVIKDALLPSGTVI

[4] = test system: plant leaf ADP-glucose pyrophosphorylase; settings: cited from earlier work; for activation in vitro: all plant leaf enzymes studied
[5] = biological target: T3, wheat endosperm ADP-glucose pyrophosphorylase; assay: Screen of 3-phosphoglycerate analogues for antagonism of phosphate inhibition; type: biochemical; set-up: Partially-purified wheat endosperm ADP-glucose pyrophosphorylase; from tissue; host or cells: wheat endosperm; settings: compound 3 mM, 1 mM phosphate
Procedure: There is clear evidence that the wheat endosperm enzyme has allosteric properties by virtue of being inhibited by phosphate and the inhibition being partially relieved by 3-phosphoglycerate. […] A careful analysis of various chemical that were chemically very closely related to 3-phosphoglycerate was carried out.
Seventeen compounds were tested at 3 mM concentration for their ability to antagonise the inhibition of the enzyme by 1 mM phosphate. The first series of compounds tested were phosphonate analogues of 3-phosphoglycerate. […] The second series tested were derivatives bearing structural similarity to 3-phosphoglycerate. Of these, only one compound gave weak alleviation of phosphate inhibition.

[6] = biological target: T2, wheat leaf ADP-glucose pyrophosphorylase; settings: read-out: concentration required to achieve half-maximal inhibition of enzyme activity

O=C(O)C(O)COP(=O)(O)O (centres unmarked) [3-phosphoglycerate]
fold activation in vitro [1]: 1,2 fold
fold induction at 100 µM [2]: 14.5
fold induction at 1000 µM [2]: 10

O=C(CO)[C@@H](O)[C@H](O)[C@H](O)COP(=O)(O)O [Fructose-6-phosphate, fructose-6-phosphate]
alleviation of phosphate inhibition ([3]; wheat endosperm enzyme): weakly alleviates phosphate inhibition
activation in vitro [4]: to a lesser extent

O=S(=O)(O)O [Sulphate]
antagonism of inhibition of the enzyme by phosphate [5]: antagonised phosphate inhibition

O=C(COP(=O)(O)O)[C@@H](O)[C@H](O)[C@H](O)COP(=O)(O)O [fructose-1,6-bisphosphate]
activation of enzyme by fructose-1,6-bisphosphate ([3]; wheat endosperm enzyme): lack of detectable activation
activation in vitro [4]: to a lesser extent

O=P(O)(O)O [orthophosphate]
IC50 ([3]; read-out: I0.5 value for orthophosphate, in the presence of 1 mM 3-phosphoglycerate): 1500 µM
IC50 ([3]; read-out: concentration required to achieve half-maximal inhibition of enzyme activity, wheat endosperm enzyme): 700 µM
IC50 [6]: 56 µM
IC50 ([4]; enzymes from plant leaves, in vitro, read-out: orthophosphate concentration for half-maximal inhibition of enzyme activity): < 100 µM

C=C(OP(=O)(O)O)C(=O)O [phosphoenol pyruvate]
activation in vitro [4]: to a lesser extent

O=C(O)CC(CP(=O)(O)O)C(=O)O (centres unmarked) [phosphonomethyl-butanedioic acid]
antagonism of inhibition of the enzyme by phosphate [5]: weak antagonism of phosphate inhibition
